Measurements taken from PubChem BioAssay (NCI).
Where “and” joins values, the source holds several entries; their conditions need not be identical. Equal entries are not always repeated.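 All cell lines were grown in 96-well plates and treated with compound for 48 hours. Here, GI50 denotes the concentration required for 50% inhibition of growth. TGI: concentration producing complete growth inhibition.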

Assays:
Assay in all cases: NCI tumour cell line growth inhibition, 48 h
SF-268 CNS = test system: SF-268 CNS
OVCAR-3 ovarian = test system: OVCAR-3 ovarian
UACC-257 melanoma = test system: UACC-257 melanoma
SN12C renal = test system: SN12C renal
SF-295 CNS = test system: SF-295 CNS
NCI-H522 lung = test system: NCI-H522 lung
A549 NSCLC = test system: A549 NSCLC
IGROV1 ovarian = test system: IGROV1 ovarian
T-47D breast = test system: T-47D breast
COLO 205 colon = test system: COLO 205 colon

Row | Compound | GI50 (SF-268 CNS) [µM] | TGI (SF-268 CNS) | GI50 (OVCAR-3 ovarian) [µM] | TGI (OVCAR-3 ovarian) [µM] | GI50 (UACC-257 melanoma) | TGI (UACC-257 melanoma) [µM] | GI50 (SN12C renal) [µM] | TGI (SN12C renal) [µM] | GI50 (SF-295 CNS) [µM] | TGI (SF-295 CNS) [µM] | GI50 (NCI-H522 lung) [µM] | TGI (NCI-H522 lung) [µM] | GI50 (A549 NSCLC) [µM] | TGI (A549 NSCLC) [µM] | GI50 (IGROV1 ovarian) [µM] | TGI (IGROV1 ovarian) [µM] | GI50 (T-47D breast) [µM] | TGI (T-47D breast) [µM] | GI50 (COLO 205 colon) [µM] | TGI (COLO 205 colon)
1 | N#CCCCCCn1c2ccccc2c2c3c(c4c5ccccc5[nH]c4c21)C(=O)N(O)C3=O | 0.957 | 48.1 µM | 1.47 | 5.72 | 1.95 µM | 5.45 | 1.29 | 4.92 | 2.44 | 6.95 | 0.164 | 0.411 | 2.78 | 8.12 | 1.12 | 3.89 | 0.455 | 8.65 | 1.85 | 4.36 µM
2 | CCOC(=O)Nc1ccc2nc(Sc3ccc(Cl)cc3)sc2c1 | 8.66 | > 100 µM | 1.89 | > 32.6 | 9.87 µM | 45.2 | 6.49 | > 100 | 2.19 | 33.9 | 2.47 | 35.2 | 6.3 | > 100 | 5.09 | > 100 | 5.93 | > 78.7 | 1.45 | 19 µM
3 | CC(=O)O[C@H]1Cc2c([nH]c3ccccc23)[C@@H](c2ccc(Cl)cc2)N1C(=O)CCNC(C)(C)C | 4.21 | 9.24 µM | 3.98 | 8.59 | 4.99 µM | 9.66 | 4.24 | 8.54 | 4.54 | 9.01 | 5.82 | 11 | 5.19 | 10.1 | 2.19 | 7.77 | 3.6 | 8.36 | 3.47 | 7.7 µM
4 | COc1ccc(OC)c(/C=C/C(=O)c2ccc(SC)cc2)c1 | 2.58 | 7.46 µM | 0.0897 | 2.7 | 16.9 µM | 33.8 | 17.2 | 33.9 | 5.05 | 57 | 6.91 | 23.4 | 28.9 | > 100 | 11 | 27.1 | 18.1 | > 100 | 5.57 | > 100 µM
5 | COC(=O)C1=C(C)NC(C)=C(C(=O)OC)C1c1ccccc1[N+](=O)[O-] | > 100 | > 100 µM | 93.2 | > 100 |  |  | 82.2 | > 100 | 57.8 | > 100 | > 100 | > 100 | > 100 | > 100 | 57.2 | > 100 | 50.9 | > 100 | 89 | > 100 µM
6 | Cn1cc(C2=C(c3cccc(Cl)c3)C(=O)NC2=O)c2ccccc21 | > 25 | > 25 µM | > 25 | > 25 | 5.46 µM | 17.7 | 20.6 | > 25 | > 25 | > 25 | > 25 | > 25 | > 25 | > 25 | 12.3 | > 25 | 20 | > 25 | 5.65 | 14.4 µM
7 | COc1ccc2c(c1)/C(=N/OC(C)=O)c1c-2c(Nc2ccc(/C(C)=N/OC(C)=O)cc2)nc2ccccc12 | 37.7 | > 100 µM | 30.1 | 87.4 | > 100 µM | > 100 | 69.7 | > 100 | > 100 | > 100 | 73.4 | > 100 | 59.6 | > 100 | 71.6 | > 100 | 20.6 | 43 | > 100 | > 100 µM
8 | CC[C@@]1(O)C(=O)N(CCN(C)C)Cc2c1cc1n(c2=O)Cc2cc3ccccc3nc2-1 | 3.59 | > 100 µM | > 100 | > 100 | > 100 µM | > 100 | 8.85 | > 100 | 5.63 | > 100 | 7.05 | > 89 | 26 | > 100 | 26 | > 100 | 21 | > 100 | > 91.6 | > 100 µM
9 | NS(=O)(=O)c1ccc(N=Nc2cc3ccccc3c(C(=O)O)c2O)cc1 |  | > 85.6 µM |  | > 87.6 |  | > 92.3 |  | > 100 |  | > 100 |  | > 65.6 |  | > 100 |  | > 100 |  | > 100 |  | > 100 µM
10 | c1ccc2c(Nc3ccc4c(c3)OCO4)c3ccoc3nc2c1 | 15.6 | 51.6 µM | 15.5 | 36.6 |  |  | 24.2 | 82.1 | 14.7 | 34.3 | 27.2 | > 100 | 6.96 | 35.8 | 31.5 | > 100 | 29.3 | > 100 | 20.2 | > 100 µM
11 | O=C(CN1CCN(c2cc3c(cc2F)c(=O)c(C(=O)O)cn3C2CC2)CC1)Nc1ccc(C(=O)/C=C/c2ccccc2)cc1 | 4.13 | > 100 µM | 3.65 | > 100 | 3.9 µM | 90.8 | 3.02 | > 100 | 2.11 | 6.25 | 1.7 | 7.78 |  |  | 3.67 | > 100 | 6.66 | > 100 | 36.3 | > 100 µM
12 | O=C(c1nc2ccccc2[nH]1)C1C(c2cccc([N+](=O)[O-])c2)C2CC3CCCCC3N2[C@@]12C(=O)Nc1cc(Cl)ccc12 (some centres not stated) | 2.11 | 5.43 µM |  |  | 1.9 µM | 6.09 | 1.72 | 3.62 | 1.56 | 3.58 | 1.67 | 4.38 | 2.34 | 6.88 | 1.54 | 3.69 | 0.998 | > 100 |  | 
13 | CN1CCN(Cc2ccc(NC(=O)c3cncc(C#Cc4cncc5[nH]ncc45)c3)cc2C(F)(F)F)CC1 | 0.899 | 3.96 µM | 1.46 | 6.39 | 0.5 µM | 4.48 | 0.906 | 5.73 | 1.73 | 7.4 | 1.16 | 8 | 1.67 | 6.79 | 0.454 | 1.45 | 1.8 | 9.4 | 0.192 | 3.56 µM
14 | CCN(Cc1cccc(C)c1)c1ccc(CO)c(Cl)c1 | 16.2 | 31.1 µM | 1.5 | 8.77 | 0.188 µM | 0.525 | 12.1 | 26.3 | 1.51 | 16.4 | 13.2 | 27.5 | 4.77 | 20.7 | 0.152 | 1.18 | 0.294 | 1.81 | 2.53 | 6.92 µM
15 | O=[N+]([O-])C1(CO)COC2(OC1)c1ccccc1-c1ccccc12 |  | > 93.2 µM |  | > 100 |  | > 100 |  | > 100 |  | > 100 |  | 41 |  | > 100 |  | > 100 |  | 77.2 |  | > 82.4 µM
16 | COc1cc(C2CC(c3cc(Cl)c(C)cc3O)=NN2c2ccc(S(N)(=O)=O)cc2)cc(OC)c1OC (configuration not stated) | 4.29 | 34.2 µM | 2.19 | 4.77 | 4.13 µM | 15.2 | 2.97 | 10.3 | 1.8 | 3.96 | 2.45 | 6.73 | 4 | 15.5 | 2.23 | 5.54 | 2.28 | 7.06 | 1.72 | 3.09 µM
17 | CCN(CC)c1ccc(/C=C2/NC(=O)NC2=O)cc1 | 4.39 | > 35.8 µM | 2.41 | 7.18 | 4.01 µM | > 100 | 11.1 | > 100 | 4.36 | > 32.7 | 2.18 | 24.8 | 9.9 | > 100 | 4.82 | > 27.6 | 4.09 | > 71.5 | 4.63 | 23.6 µM
18 | CCn1c(-c2nonc2N)nc2c(C#CC(C)(C)O)ncc(OCC3CCNCC3)c21 | 9.41 | > 25 µM | 7.07 | > 23.6 | > 20.7 µM | > 25 | 9.17 | > 25 | 5.29 | > 25 | 9.07 | > 25 | 10.7 | > 25 | 1.34 | > 25 | > 25 | > 25 | 4.84 | 15.2 µM
19 | Fc1ccc(-c2ncn(C3CCNCC3)c2-c2ccnc(Oc3ccc(Oc4ccccc4)cc3)n2)cc1 | 3.94 | 7.71 µM | 4.36 | 7.94 | 4.71 µM | 8.54 | 3.57 | 6.96 | 4.52 | 8.84 | 4.67 | 8.7 | 4.09 | 7.84 | 3.78 | 7.5 | 4.45 | 8.55 | 2.48 | 6.23 µM
20 | COC(=O)[C@@H](C)C[C@H](Cc1ccccc1)NC(=O)c1csc([C@@H](C[C@H](C(C)C)N(C)C(=O)[C@@H](NC(=O)CN(C)C)C2CC2)OC(C)=O)n1 | 0.0373 | > 16.5 µM | 0.00309 |  |  |  | 0.0647 | > 16.5 | 0.0168 | 0.329 | 0.0033 | 0.26 | 0.24 | > 16.5 | 0.0245 | > 16.5 | > 16.5 | > 16.5 | 0.0231 | 0.499 µM
21 | O=C(N/N=C\c1cc(Br)cc(Br)c1O)N/N=C/c1cc(Br)cc(Br)c1O | 1.47 | 12 µM | 4.03 | 16.3 | 2.48 µM | 8.92 | 4.56 | 17.8 | 2.48 | 15.7 | 3.08 | 13.8 | 3.74 | 14.6 |  |  | 4.02 | 17.7 | 3.92 | 14.6 µM
22 | O=C(Nc1ccc(Oc2cccc(Cl)c2)c(Cl)c1)c1cccnc1 | 3.71 | 46.6 µM | 1.22 | 4.28 | 5.1 µM | 27 | 3.74 | > 50 | 1.33 | 16 | 0.968 | 5.89 | 2.08 | > 50 | 2.76 | > 50 | 1.91 | > 50 | 1.39 | 8.1 µM
23 | COc1cc2cc(C(=O)N3C[C@H](CCl)c4c3cc(O)c3ccccc43)[nH]c2c(OC)c1OC | 0.0169 | 0.563 µM and 4.99 µM | 0.0474 | 14.4 | 0.135 µM and 0.0459 µM |  |  |  |  | 1.23 | 0.0104 |  |  |  |  |  | 0.0256 | 0.362 | 0.118 | 1.8 µM and 0.483 µM
24 | CO[C@H]1/C=C/C=C/C=C/C[C@H](OC(=O)[C@@H](C)NC(=O)C2CCCCC2)[C@H](C)[C@@H](O)/C(C)=C\CCC2=CC(=O)C=C(NC(=O)C1)C2=O | 0.123 | 1.01 µM | 0.154 | 0.997 |  |  | 0.106 | 0.556 | 0.124 | 0.966 | 0.104 | 0.823 | 0.188 | 1.92 | 0.0941 | 1.28 | 0.105 | 1.06 | 0.116 | 0.736 µM
25 | NC(=S)c1cn(C2OC(CO)C(O)C2O)c2ncnc(N)c12 (configuration not stated) | 0.284 | 3.4 µM | 0.173 | 1.23 | 0.166 µM | 0.571 | 0.201 | 12.5 | 0.287 | 3.07 | 0.168 | 0.554 | 0.266 | > 100 | 0.136 | 0.586 | 0.0195 | 0.0929 |  | 
